Laboratory results reported in patent US8609635B2, “Fused tricyclic silyl compounds and methods of use thereof for the treatment of viral diseases” (priority 2010, dated 2013).

Legend:
HCV replicon gt1a_H77 = assay: Cell-based HCV replicon assay (TaqMan), genotype 1a (H77); conditions: Hepatitis C virus, 72 h, replicon 1a (H77); replicon RNA by TaqMan, day 3
How it was run: (§1)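 Replicon cells seeded at 5000 cells/well with compound (10 serial 2-fold dilutions from 250 μM to 1 μM top dose; 0.5% DMSO, 5% FBS) and lysed on day 3. Replicon RNA quantified by multiplex TaqMan RT-PCR (NS5B amplicon, GAPDH control); ΔCT versus concentration fitted to sigmoid dose-response. Chimeras carry patient-isolate NS5A.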

HCV replicon gt1b_con1 = assay: Cell-based HCV replicon assay (TaqMan), genotype 1b (Con1); conditions: Hepatitis C virus, 72 h; replicon 1b (Con1); replicon RNA by TaqMan, day 3
How it was run: as §1

HCV replicon gt2a_JFH = assay: Cell-based HCV replicon assay (TaqMan), genotype 2a (JFH); conditions: Hepatitis C virus, 72 h, replicon 2a (JFH); replicon RNA by TaqMan, day 3
How it was run: as §1

[1] = test system: HCV chimeric replicon with NS5A of genotype 2b (AB03090); assay: Cell-based HCV replicon assay (TaqMan), chimeric replicon genotype 2b (AB03090); conditions: Hepatitis C virus, 72 h, read-out: HCV replicon EC50 2b (AB03090), chimeric replicon 2b (AB03090); replicon RNA by TaqMan, day 3
Protocol: (§2) Measurement of inhibition by compounds of the present invention was performed using the HCV replicon system. Several different replicons encoding different HCV genotypes or mutations were used. In addition, potency measurements were made using different formats of the replicon assay, including different ways of measurements and different plating formats. See Jan M. Vrolijk et al., A replicons-based bioassay for the measurement of interferons in patients with chronic hepatitis C, 110 J. VIROLOGICAL METHODS 201 (2003); Steven S. Carroll et al., Inhibition of Hepatitis C Virus RNA Replication by 2′-Modified Nucleoside Analogs, 278(14) J. BIOLOGICAL […] 11979 (2003). However, the underlying principles are common to all of these determinations, and are outlined below.
(§3) Compounds of the present invention were assayed for cell-based anti-HCV activity using the following protocol. Replicon cells were seeded at 5000 cells/well in 96-well collagen I-coated Nunc plates in the presence of the test compound. Various concentrations of test compound, typically in 10 serial 2-fold dilutions, were added to the assay mixture, with the starting concentration ranging from 250 μM to 1 μM. The final concentration of DMSO was 0.5%, fetal bovine serum was 5%, in the assay media. Cells were harvested on day 3 by the addition of 1× cell lysis buffer (Ambion cat #8721). The replicon RNA level was measured using real time PCR (TaqMan® assay). The amplicon was located in 5B. The PCR primers were: 5B.2F, […] (SEQ. ID NO. 1); 5B.2R, […] (SEQ. ID NO. 2); the probe sequence was FAM-labeled […] (SEQ. ID NO. 3). GAPDH RNA was used as endogenous control and was amplified in the same reaction as NS5B (multiplex PCR) using primers and VIC-labeled probe recommended by the manufacturer (PE Applied Biosystem). The real-time RT-PCR reactions were run on ABI PRISM 7900HT Sequence Detection System using the following program: 48° C. for 30 minutes, 95° C. for 10 minutes, 40 cycles of 95° C. for 15 sec, 60° C. for 1 minute. The ΔCT values (CT5B-CTGAPDH) were plotted against the concentration of test compound and fitted to the sigmoid dose-response model using XLfit4 (MDL). […] Alternatively, to quantitate the absolute amount of replicon RNA, a standard curve was established by including serially diluted T7 transcripts of replicon RNA in the Taqman assay. All TaqMan® reagents were from PE Applied Biosystems. Such an assay procedure was described in detail in e.g. Malcolm et al., Antimicrobial Agents and Chemotherapy 50: 1013-1020 (2006).
(§4) Wherein gt1a_H77 was prepared as described in Yi et al., J Virol. 2004, 78(15):7904-15; gt1b_con1 was prepared as described in Lohmann et al., Science 1999, 285(5424):110-3; and gt2a_JFH was prepared as described in Kato et al., Gastroenterology. 2003, 125(6):1808-17. Chimeric replicons contain NS5A from patient isolates of genotypes 1a, 1b, 2b, 3a and 4a as indicated.

[2] = test system: HCV chimeric replicon with NS5A of genotype 3a (NC00982); assay: Cell-based HCV replicon assay (TaqMan), chimeric replicon genotype 3a (NC00982); conditions: Hepatitis C virus, 72 h, read-out: HCV replicon EC50 3a (NC00982), chimeric replicon 3a (NC00982); replicon RNA by TaqMan, day 3
How it was run: as §1

[3] = test system: HCV chimeric replicon with NS5A of genotype 4a (DQ41878); assay: Cell-based HCV replicon assay (TaqMan), chimeric replicon genotype 4a (DQ41878); conditions: Hepatitis C virus, 72 h, read-out: HCV replicon EC50 4a (DQ41878)
Protocol: as §2, §3, §4

[4] = test system: HCV replicon 1a (Y93H) mutant; assay: Cell-based HCV replicon assay (TaqMan), genotype 1a mutant Y93H; conditions: Hepatitis C virus, 72 h, read-out: HCV replicon EC50 1a (Y93H)
How it was run: as §1

[5] = test system: HCV replicon 1a (L31V) mutant; assay: Cell-based HCV replicon assay (TaqMan), genotype 1a mutant L31V; conditions: Hepatitis C virus, 72 h, read-out: HCV replicon EC50 1a (L31V)
Protocol: as §2, §3, §4

## COC(=O)N[C@H](C(=O)N1CC[C@H](C)[C@H]1c1ncc(-c2ccc(-c3ccc4c(ccc5nc([C@@H]6C[Si](C)(C)CN6C(=O)[C@@H](NC(=O)OC)C(C)C)[nH]c54)c3)cc2)[nH]1)C(C)C [Compound 96]
HCV replicon gt1a_H77
  EC50: 0.04 nM
HCV replicon gt1b_con1
  EC50: 0.004 nM
HCV replicon gt2a_JFH
  EC50: 0.013 nM
[1]
  EC50: 49.3 nM
[2]
  EC50: 0.099 nM
[3]
  EC50: 0.936 nM
[4]
  EC50: 51 nM
[5]
  EC50: 1 nM

## COC(=O)N[C@H](C(=O)N1C[Si](C)(C)C[C@H]1c1nc2ccc3cc(-c4ccc(-c5cnc([C@@H]6C[C@H]7C[C@H]7N6C(=O)[C@@H](NC(=O)OC)C(C)C)[nH]5)cc4)ccc3c2[nH]1)C(C)C [Compound 97]
HCV replicon gt1a_H77
  EC50: 0.005 nM
HCV replicon gt1b_con1
  EC50: 0.002 nM
HCV replicon gt2a_JFH
  EC50: 0.005 nM
[1]
  EC50: 17.1 nM
[2]
  EC50: 0.09 nM
[3]
  EC50: 0.029 nM
[4]
  EC50: 30 nM
[5]
  EC50: 15 nM
